Test results reported in US9302999B2, “Substituted triazoles as herbicides” (E. I. DU PONT DE NEMOURS AND COMPANY, priority 2012, dated 2016).
Like-named read-outs stand apart in the source and are kept apart here.

Legend:
Type in all cases: in vivo
rice (Oryza sativa) = test: Test B flooded paddy: rice; conditions: Flood; 250 g ai/ha; applied to paddy water at 2-leaf stage; visually evaluated after 13 to 15 days
In short: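 Two-leaf-stage plants, pots flooded (3 cm above soil) and treated through the water, which stayed at that depth. After 13–15 days in greenhouse conditions, visual assessment versus controls: 0 is no effect, 100 complete control, dash means no result.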

[1] = tested on: barnyardgrass (Echinochloa crus-galli); test: Test A pre-/postemergence: barnyardgrass; conditions: for pest or weed control at 125 g/ha / pest or weed control at 500 g/ha: Echinochloa crus-galli, 240 h; for pest or weed control at 125 g/ha: 125 g ai/ha; for pest or weed control at 500 g/ha: 500 g ai/ha; for Barnyardgrass plant response rating: 1000 g ai/ha
In short: (§1)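 Visual 0–100 injury ratings (0 no effect, 100 complete control) taken about ten days after treatment, relative to untreated controls. Preemergence treatment was a directed soil spray; postemergence plants were 2–10 cm tall at one- to two-leaf stage. Soil: loam/sand blend.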

[2] = tested on: morningglory (Ipomoea spp.); test: Test A pre-/postemergence: morningglory; conditions: for Morningglory plant response rating: 1000 g ai/ha
In short: as §1

corn (Zea mays) = test: Test A pre-/postemergence: corn; conditions: for Corn plant response rating: 1000 g ai/ha
In short: as §1

[3] = tested on: lambsquarters (Chenopodium album); test: Test C pre-/postemergence: lambsquarters
In short: (§2)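 Visual injury scored 0–100 (100 = complete control) against untreated controls after 13–15 greenhouse days. Surfactant-containing solvent formulations applied either to soil after sowing (loam/sand) or over 1- to 4-leaf plants, 2–18 cm tall.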

[4] = tested on: ragweed (common ragweed, Ambrosia elation); test: Test C pre-/postemergence: ragweed
In short: as §2

[5] = tested on: galium (catchweed bedstraw, Galium aparine); test: Test C pre-/postemergence: galium
In short: as §2

kochia (Kochia scoparia) = test: Test C pre-/postemergence: kochia
In short: as §2

[6] = tested on: velvetleaf (Abutilon theophrasti); test: Test C pre-/postemergence: velvetleaf
In short: as §2

[7] = tested on: johnsongrass (Sorghum halepense); test: Test C pre-/postemergence: johnsongrass
In short: as §2

[8] = Postemergence, 31 g ai/ha, scale 0 to 100 (0 no effect, 100 complete control)
[9] = Postemergence, 62 g ai/ha, scale 0 to 100 (0 no effect, 100 complete control)
[10] = Postemergence, 125 g ai/ha, scale 0 to 100, 0 no effect, 100 complete control
[11] = Postemergence, 250 g ai/ha, scale 0 to 100
[12] = Preemergence, 31 g ai/ha, scale of 0 to 100, 0 is no effect, 100 is complete control
[13] = Preemergence, 62 g ai/ha, scale of 0 to 100, 0 is no effect, 100 is complete control
[14] = Preemergence, 125 g ai/ha, scale 0 to 100, 0 no effect, 100 complete control
[15] = Preemergence, 250 g ai/ha, scale 0 to 100, 0 no effect, 100 complete control
[16] = Postemergence, visual rating on 0 to 100 scale (0 no effect, 100 complete control), approximately ten days
[17] = Preemergence, 0 to 100 scale, 0 is no effect, 100 is complete control

Question: What does the source list for Cc1nn(-c2ccc(F)cc2F)nc1Cc1ccnc(C(F)(F)F)c1 [Compound 54, 4-[[2-(2,4-difluorophenyl)-5-methyl-2H-1,2,3-triazol-4-yl]methyl]-2-(trifluoromethyl)pyridine]?
Answer: Plant response rating, Rice (0 to 100 scale, 0 is no effect, 100 is complete control) (rice (Oryza sativa)): 30; pest or weed control at 125 g/ha ([1]; post-emergence, Postemergence, 0 to 100 scale, 0 is no effect, 100 is complete control, read-out: Barnyardgrass plant response rating): 70%; pest or weed control at 500 g/ha ([1]; post-emergence, Postemergence, visual rating on 0 to 100 scale (0 no effect, 100 complete control), approximately ten days, read-out: Barnyardgrass plant response rating): 90%; pest or weed control at 125 g/ha ([1]; pre-emergence, Preemergence, 0 to 100 scale (0 no effect, 100 complete control), read-out: Plant response rating, Barnyardgrass): 80%; pest or weed control at 500 g/ha ([1]; pre-emergence, Preemergence, 0 to 100 scale, 0 is no effect, 100 is complete control, read-out: Plant response rating, Barnyardgrass): 100%; pest or weed control at 125 g/ha ([2]; Ipomoea, pre-emergence, 240 h, Preemergence, 125 g ai/ha, 0 to 100 scale (0 no effect, 100 complete control), read-out: Plant response rating, Morningglory): 60%; pest or weed control at 500 g/ha ([2]; Ipomoea, pre-emergence, 240 h, Preemergence, 500 g ai/ha, 0 to 100 scale, 0 is no effect, 100 is complete control, read-out: Plant response rating, Morningglory): 90%; plant injury at 125 g/ha (corn (Zea mays); Zea mays, post-emergence, 240 h, Postemergence, 125 g ai/ha, 0 to 100 scale, 0 is no effect, 100 is complete control, read-out: Corn plant response rating): 30%; plant injury at 500 g/ha (corn (Zea mays); Zea mays, post-emergence, 240 h, Postemergence, 500 g ai/ha, visual rating on 0 to 100 scale (0 no effect, 100 complete control), approximately ten days, read-out: Corn plant response rating): 60%; Corn plant response rating (crop injury, 0 = no effect, 100 = complete kill) at 125 g/ha (corn (Zea mays); Zea mays, pre-emergence, 240 h, Preemergence, 125 g ai/ha, 0 to 100 scale (0 no effect, 100 complete control)): 10%; Corn plant response rating (crop injury, 0 = no effect, 100 = complete kill) at 500 g/ha (corn (Zea mays); Zea mays, pre-emergence, 240 h, Preemergence, 500 g ai/ha, 0 to 100 scale, 0 is no effect, 100 is complete control): 40%

Question: How did the “Plant response rating, Lambsquarters” value [3, 8] turn out when Cc1nn(-c2ccc(C(F)(F)F)cn2)nc1Cc1cccc(C(F)(F)F)c1 [Compound 106] was run?
Answer: 80

Question: What about the “Plant response rating, Lambsquarters” value [3, 9] of the same compound?
Answer: 100

Question: What about the “Plant response rating, Lambsquarters” value [3, 10] of the same compound?
Answer: 100

Question: And the “Plant response rating, Lambsquarters” value [3, 11]?
Answer: 100

Question: And the “Plant response rating, Lambsquarters” value [3, 12]?
Answer: 85

Question: And the “Plant response rating, Lambsquarters” value [3, 13]?
Answer: 100

Question: And the “Plant response rating, Lambsquarters” value [3, 14]?
Answer: 100

Question: And the “Plant response rating, Lambsquarters” value [3, 15]?
Answer: 100

Question: What about the “Plant response rating, Ragweed” value [4, 8] of the same compound?
Answer: 10

Question: And the “Plant response rating, Ragweed” value [4, 9]?
Answer: 55

Question: And the “Plant response rating, Ragweed” value [4, 10]?
Answer: 60

Question: And the “Plant response rating, Ragweed” value [4, 11]?
Answer: 60

Question: What about the “Plant response rating, Ragweed” value [4, 12] of the same compound?
Answer: 0

Question: What about the “Plant response rating, Ragweed” value [4, 13] of the same compound?
Answer: 0

Question: And the “Plant response rating, Ragweed” value [4, 14]?
Answer: 0

Question: What about the “Plant response rating, Ragweed” value [4, 15] of the same compound?
Answer: 55

Question: And the “Plant response rating, Galium” value [5, 8]?
Answer: 65

Question: What about the “Plant response rating, Galium” value [5, 9] of the same compound?
Answer: 65

Question: And the “Plant response rating, Galium” value [5, 10]?
Answer: 80

Question: And the “Plant response rating, Galium” value [5, 11]?
Answer: 80

Question: And the “Plant response rating, Galium” value [5, 12]?
Answer: 5

Question: And the “Plant response rating, Galium” value [5, 13]?
Answer: 10

Question: What about the “Plant response rating, Galium” value [5, 14] of the same compound?
Answer: 60

Question: What about the “Plant response rating, Galium” value [5, 15] of the same compound?
Answer: 90

Question: And the “Plant response rating, Kochia” value (kochia (Kochia scoparia); [8])?
Answer: 85

Question: And the “Plant response rating, Kochia” value (kochia (Kochia scoparia); [9])?
Answer: 85

Question: What about the “Plant response rating, Kochia” value (kochia (Kochia scoparia); [10]) of the same compound?
Answer: 85

Question: And the “Plant response rating, Kochia” value (kochia (Kochia scoparia); [11])?
Answer: 90

Question: What about the “Plant response rating, Kochia” value (kochia (Kochia scoparia); [12]) of the same compound?
Answer: 0

Question: And the “Plant response rating, Kochia” value (kochia (Kochia scoparia); [13])?
Answer: 0

Question: And the “Plant response rating, Kochia” value (kochia (Kochia scoparia); [14])?
Answer: 45

Question: And the “Plant response rating, Kochia” value (kochia (Kochia scoparia); [15])?
Answer: 65

Question: What about the “Barnyardgrass plant response rating” value [1, 16] of the same compound?
Answer: 40

Question: What about the “Barnyardgrass plant response rating” value [1, 17] of the same compound?
Answer: 50

Question: What about the “Plant response rating, Velvetleaf” value [6, 8] of the same compound?
Answer: 5

Question: What about the “Plant response rating, Velvetleaf” value [6, 9] of the same compound?
Answer: 45

Question: What about the “Plant response rating, Velvetleaf” value [6, 10] of the same compound?
Answer: 65

Question: What about the “Plant response rating, Velvetleaf” value [6, 11] of the same compound?
Answer: 65

Question: And the “Plant response rating, Velvetleaf” value [6, 12]?
Answer: 0

Question: What about the “Plant response rating, Velvetleaf” value [6, 13] of the same compound?
Answer: 0

Question: What about the “Plant response rating, Velvetleaf” value [6, 14] of the same compound?
Answer: 0

Question: What about the “Plant response rating, Velvetleaf” value [6, 15] of the same compound?
Answer: 10

Question: And the “Plant response rating, Johnsongrass” value [7, 8]?
Answer: 0

Question: And the “Plant response rating, Johnsongrass” value [7, 9]?
Answer: 15

Question: What about the “Plant response rating, Johnsongrass” value [7, 10] of the same compound?
Answer: 40

Question: What about the “Plant response rating, Johnsongrass” value [7, 11] of the same compound?
Answer: 55

Question: What about the “Plant response rating, Johnsongrass” value [7, 12] of the same compound?
Answer: 0

Question: What about the “Plant response rating, Johnsongrass” value [7, 13] of the same compound?
Answer: 20

Question: What about the “Plant response rating, Johnsongrass” value [7, 14] of the same compound?
Answer: 75

Question: What about the “Plant response rating, Johnsongrass” value [7, 15] of the same compound?
Answer: 85

Question: What about the “Morningglory plant response rating” value [2, 16] of the same compound?
Answer: 100

Question: What about the “Morningglory plant response rating” value [2, 17] of the same compound?
Answer: 20

Question: What about the “Corn plant response rating” value (corn (Zea mays); [16]) of the same compound?
Answer: 10

Question: And the “Corn plant response rating” value (corn (Zea mays); [17])?
Answer: 10
